Results published in patent US11505573B2, “Peptide macrocycles against Acinetobacter baumannii” (Hoffmann-La Roche Inc., priority 2018, dated 2022).

Test system: A. baumannii ATCC 17978
Assay: Antimicrobial susceptibility testing: 50% growth inhibitory concentration (IC50) determination in Iso-Sensitest broth
Assay type: cell-based
Conditions: Acinetobacter baumannii; A. baumannii strain ATCC17978; Iso-Sensitest medium; OD 600 nm over 16 h; 35±2° C.; read-out: IC50 ATCC17978 (50% growth inhibition concentration)
Experimental: Antimicrobial Susceptibility Testing: 50% Growth Inhibitory Concentration (IC50) Determination The in vitro antimicrobial activity of the compounds was alternatively determined according to the following procedure: The assay used a 10-points Iso-Sensitest broth medium to measure quantitatively the in vitro activity of the compounds against A. baumannii ATCC 17978. Stock compounds in DMSO were serially twofold diluted (e.g. range from 10 to 0.02 μM final concentration) in 384 wells microtiter plates and inoculated with 49 μl the bacterial suspension in Iso-Sensitest medium to have a final cell concentration of ˜5×10^(5) CFU/ml in a final volume/well of […] Microtiter plates were incubated at 35±2° C. Bacterial cell growth was determined by the measurement of optical density at λ=600 nm each 20 minutes over a time course of 16 h. Growth inhibition was calculated during the logarithmic growth of the bacterial cells by determination of the concentration inhibiting 50% (IC50) and 90% (IC90) of the growth. Table 1 provides the 50% growth inhibitory concentrations (IC50) in micromoles per liter of the compounds of present invention obtained against the A. baumannnii strain ATCC17978.

Compound | IC50
CN1C(=O)[C@H](CCCN)NC(=O)[C@H](CCCN)NCc2cccnc2Sc2c(Cl)ccc(-c3ccc(-c4nnn[nH]4)cc3)c2CNC(=O)[C@@H]1Cc1c[nH]c2ccccc12 [Example 8.01, (11S,14S,17S)-11,14-bis(3-aminopropyl)-25-chloro-17-(1H-indol-3-ylmethyl)-16-methyl-22-[4-(1H-tetrazol-5-yl)phenyl]-2-thia-4,10,13,16,19-pentazatricyclo[19.4.0.03,8]pentacosa-1(21),3,5,7,22,24-hexaene-12,15,18-trione] | 20 nM
CN1C(=O)[C@H](CCCN)NC(=O)[C@H](CCCN)NCc2cccnc2Sc2c(Cl)ccc(-c3cnc(=O)[nH]c3)c2CNC(=O)[C@@H]1Cc1c[nH]c2ccccc12 [Example 8.02, (11S,14S,17S)-11,14-bis(3-aminopropyl)-25-chloro-17-(1H-indol-3-ylmethyl)-16-methyl-22-(2-oxo-1H-pyrimidin-5-yl)-2-thia-4,10,13,16,19-pentazatricyclo[19.4.0.03,8]pentacosa-1(21),3,5,7,22,24-hexaene-12,15,18-trione] | 80 nM
CN1C(=O)[C@H](CCCN)NC(=O)[C@H](CCCN)NCc2cccnc2Sc2c(F)ccc(-c3ccc(S(=O)(=O)O)cc3)c2CNC(=O)[C@@H]1Cc1c[nH]c2ccccc12 [Example 9.00, 4-[(11S,14S,17S)-11,14-Bis(3-aminopropyl)-25-fluoro-17-(1H-indol-3-ylmethyl)-16-methyl-12,15,18-trioxo-2-thia-4,10,13,16,19-pentazatricyclo[19.4.0.03,8]pentacosa-1(25), 3(8),4,6,21,23-hexaen-22-yl]benzenesulfonic acid] | 20 nM
CN1C(=O)[C@H](CCCN)NC(=O)[C@H](CCCN)NCc2cccnc2Sc2c(F)ccc(-c3ccc(-c4nnn[nH]4)cc3)c2CNC(=O)[C@@H]1Cc1c[nH]c2ccccc12 [Example 9.01, (11S,14S,17S)-11,14-Bis(3-aminopropyl)-25-fluoro-17-(1H-indol-3-ylmethyl)-16-methyl-22-[4-(1H-tetrazol-5-yl)phenyl]-2-thia-4,10,13,16,19-pentazatricyclo[19.4.0.03,8]pentacosa-1(25), 3(8),4,6,21,23-hexaene-12,15,18-trione] | 20 nM
CN1C(=O)[C@H](CCCN)NC(=O)[C@H](CCCN)NCc2cccnc2Sc2c(F)ccc(-c3ccc(P(=O)(O)O)cc3)c2CNC(=O)[C@@H]1Cc1c[nH]c2ccccc12 [Example 10.00, [4-[(11S,14S,17S)-11,14-Bis(3-aminopropyl)-25-fluoro-17-(1H-indol-3-ylmethyl)-16-methyl-12,15,18-trioxo-2-thia-4,10,13,16,19-pentazatricyclo[19.4.0.03,8]pentacosa-1(25), 3(8),4,6,21,23-hexaen-22-yl]phenyl]phosphonic acid] | 620 nM
CN1C(=O)[C@H](CCCCN)NC(=O)[C@H](CCC(N)=O)NCc2cccnc2Sc2c(Cl)ccc(-c3ccc(P(=O)(O)O)cc3)c2CNC(=O)[C@@H]1Cc1c[nH]c2ccccc12 [Example 10.01, [4-[(11S,14S,17S)-14-(4-aminobutyl)-11-(3-amino-3-oxo-propyl)-25-chloro-17-(1H-indol-3-ylmethyl)-16-methyl-12,15,18-trioxo-2-thia-4,10,13,16,19-pentazatricyclo[19.4.0.03,8]pentacosa-1(21),3,5,7,22,24-hexaen-22-yl]phenyl]phosphonic acid] | 3030 nM
CN1C(=O)[C@H](CCCCN)NC(=O)[C@H](CCCN)NCc2cccnc2Sc2c(Cl)ccc(-c3ccc(P(=O)(O)O)cc3)c2CNC(=O)[C@@H]1Cc1c[nH]c2ccccc12 [Example 10.02, [4-[(11S,14S,17S)-14-(4-aminobutyl)-11-(3-aminopropyl)-25-chloro-17-(1H-indol-3-ylmethyl)-16-methyl-12,15,18-trioxo-2-thia-4,10,13,16,19-pentazatricyclo[19.4.0.03,8]pentacosa-1(21),3,5,7,22,24-hexaen-22-yl]phenyl]phosphonic acid] | 150 nM
Cc1ccc(-c2ccc(S(=O)(=O)O)cc2)c2c1Sc1ncccc1CN[C@@H](CCCN)C(=O)N[C@@H](CCCCN)C(=O)N(C)[C@@H](Cc1c[nH]c3ccccc13)C(=O)NC2 [Example 11.00, 4-[(11S,14S,17S)-14-(4-Aminobutyl)-11-(3-aminopropyl)-17-(1H-indol-3-ylmethyl)-16,25-dimethyl-12,15,18-trioxo-2-thia-4,10,13,16,19-pentazatricyclo[19.4.0.03,8]pentacosa-1(25), 3(8),4,6,21,23-hexaen-22-yl]benzenesulfonic acid] | 20 nM
Cc1ccc(-c2ccc(-c3nnn[nH]3)cc2)c2c1Sc1ncccc1CN[C@@H](CCCN)C(=O)N[C@@H](CCCCN)C(=O)N(C)[C@@H](Cc1c[nH]c3ccccc13)C(=O)NC2 [Example 11.01, (11S,14S,17S)-14-(4-Aminobutyl)-11-(3-aminopropyl)-17-(1H-indol-3-ylmethyl)-16,25-dimethyl-22-[4-(1H-tetrazol-5-yl)phenyl]-2-thia-4,10,13,16,19-pentazatricyclo[19.4.0.03,8]pentacosa-1(25), 3(8),4,6,21,23-hexaene-12,15,18-trione] | 20 nM
CN1C(=O)[C@H](CCCCN)NC(=O)[C@H](CCN)NCc2cccnc2Sc2c(Cl)ccc(-c3ccc(S(=O)(=O)O)cc3)c2CNC(=O)[C@@H]1Cc1c[nH]c2ccccc12 [Example 12.00, 4-[(11S,14S,17S)-14-(4-Aminobutyl)-11-(2-aminoethyl)-25-chloro-17-(1H-indol-3-ylmethyl)-16-methyl-12,15,18-trioxo-2-thia-4,10,13,16,19-pentazatricyclo[19.4.0.03,8]pentacosa-1(25), 3(8),4,6,21,23-hexaen-22-yl]benzenesulfonic acid] | 20 nM
CN1C(=O)[C@H](CCCN)NC(=O)[C@H](CCN)NCc2cccnc2Sc2c(Cl)ccc(-c3ccc(S(=O)(=O)O)cc3)c2CNC(=O)[C@@H]1Cc1c[nH]c2ccccc12 [Example 13.00, 4-[(11S,14S,17S)-11-(2-Aminoethyl)-14-(3-aminopropyl)-25-chloro-17-(1H-indol-3-ylmethyl)-16-methyl-12,15,18-trioxo-2-thia-4,10,13,16,19-pentazatricyclo[19.4.0.03,8]pentacosa-1(25), 3(8),4,6,21,23-hexaen-22-yl]benzenesulfonic acid] | 20 nM
C[C@@H]1NCc2cccnc2Sc2c(Cl)ccc(-c3ccc(S(=O)(=O)O)cc3)c2CNC(=O)[C@H](Cc2c[nH]c3ccccc23)N(C)C(=O)[C@H](CCCN)NC1=O [Example 14.00, 4-[(11S,14S,17S)-14-(3-Aminopropyl)-25-chloro-17-(1H-indol-3-ylmethyl)-11,16-dimethyl-12,15,18-trioxo-2-thia-4,10,13,16,19-pentazatricyclo[19.4.0.03,8]pentacosa-1(25), 3(8),4,6,21,23-hexaen-22-yl]benzenesulfonic acid] | 720 nM
COc1ccc(-c2ccc(S(=O)(=O)O)cc2)c2c1Sc1ncccc1CN[C@@H](CCCN)C(=O)N[C@@H](CCCCN)C(=O)N(C)[C@@H](Cc1c[nH]c3ccccc13)C(=O)NC2 [Example 15.00, 4-[(11S,14S,17S)-14-(4-Aminobutyl)-11-(3-aminopropyl)-17-(1H-indol-3-ylmethyl)-25-methoxy-16-methyl-12,15,18-trioxo-2-thia-4,10,13,16,19-pentazatricyclo[19.4.0.03,8]pentacosa-1(25), 3(8),4,6,21,23-hexaen-22-yl]benzenesulfonic acid] | 80 nM
COc1ccc(-c2ccc(-c3nnn[nH]3)cc2)c2c1Sc1ncccc1CN[C@@H](CCCN)C(=O)N[C@@H](CCCCN)C(=O)N(C)[C@@H](Cc1c[nH]c3ccccc13)C(=O)NC2 [Example 15.01, (11S,14S,17S)-14-(4-Aminobutyl)-1-(3-aminopropyl)-17-(1H-indol-3-ylmethyl)-25-methoxy-16-methyl-22-[4-(1H-tetrazol-5-yl)phenyl]-2-thia-4,10,13,16,19-pentazatricyclo[19.4.0.03,8]pentacosa-1(25), 3(8),4,6,21,23-hexaene-12,15,18-trione] | 40 nM
CC(=O)NS(=O)(=O)c1ccc(-c2ccc(Cl)c3c2CNC(=O)[C@H](Cc2c[nH]c4ccccc24)N(C)C(=O)[C@H](CCCCN)NC(=O)[C@H](CCCO)NCc2cccnc2S3)cc1 [Example 16.00, N-[4-[(11S,14S,7S)-14-(4-aminobutyl)-25-chloro-11-(3-hydroxypropyl)-17-(1H-indol-3-ylmethyl)-16-methyl-12,15,18-trioxo-2-thia-4,10,13,16,19-pentazatricyclo[19.4.0.03,8]pentacosa-1(21),3,5,7,22,24-hexaen-22-yl]phenyl]sulfonylacetamide] | 310 nM
CN1C(=O)[C@H](CCCCN)NC(=O)[C@H](CCCO)NCc2cccnc2Sc2c(Cl)ccc(-c3cnc(O)nc3)c2CNC(=O)[C@@H]1Cc1c[nH]c2ccccc12 [Example 16.01, (11S,14S,17S)-14-(4-Aminobutyl)-25-chloro-11-(3-hydroxypropyl)-22-(2-hydroxypyrimidin-5-yl)-17-(1H-indol-3-ylmethyl)-16-methyl-2-thia-4,10,13,16,19-pentazatricyclo[19.4.0.03,8]pentacosa-1(21),3,5,7,22,24-hexaene-12,15,18-trione] | 1840 nM
